{
  "source": "ChEMBL document CHEMBL4507292",
  "about": "(2021)",
  "key": {"[1]": {"biological_target": "5-hydroxytryptamine receptor 1A (Homo sapiens, UniProt P08908)", "sequence (P08908 whole entry)": "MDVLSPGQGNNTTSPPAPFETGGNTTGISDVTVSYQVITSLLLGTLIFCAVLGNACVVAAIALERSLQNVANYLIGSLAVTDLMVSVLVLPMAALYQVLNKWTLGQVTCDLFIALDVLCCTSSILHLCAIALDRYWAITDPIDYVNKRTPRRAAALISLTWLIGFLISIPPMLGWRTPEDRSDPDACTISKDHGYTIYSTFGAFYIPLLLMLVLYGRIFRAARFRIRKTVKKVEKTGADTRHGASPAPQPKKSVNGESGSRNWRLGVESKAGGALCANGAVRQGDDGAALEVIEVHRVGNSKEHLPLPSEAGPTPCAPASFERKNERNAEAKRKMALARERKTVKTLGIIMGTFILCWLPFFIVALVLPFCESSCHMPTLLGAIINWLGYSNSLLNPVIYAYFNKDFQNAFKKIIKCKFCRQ", "assay": "Inhibition of Serotonin (5-Hydroxytryptamine) 5-HT1A at compound concentration of 10.0 uM in the Eurofins-Panlabs radioligand binding assay (Eurofins_assay_271110)", "parameters": "ligand concentration 1.5 nM, non-specific ligand with concentration 10 uM Metergoline, incubation time 60 min, incubation temperature 25 C"}, "[2]": {"biological_target": "Prostaglandin G/H synthase 1 (Homo sapiens) (UniProt P23219)", "sequence (P23219 whole entry)": "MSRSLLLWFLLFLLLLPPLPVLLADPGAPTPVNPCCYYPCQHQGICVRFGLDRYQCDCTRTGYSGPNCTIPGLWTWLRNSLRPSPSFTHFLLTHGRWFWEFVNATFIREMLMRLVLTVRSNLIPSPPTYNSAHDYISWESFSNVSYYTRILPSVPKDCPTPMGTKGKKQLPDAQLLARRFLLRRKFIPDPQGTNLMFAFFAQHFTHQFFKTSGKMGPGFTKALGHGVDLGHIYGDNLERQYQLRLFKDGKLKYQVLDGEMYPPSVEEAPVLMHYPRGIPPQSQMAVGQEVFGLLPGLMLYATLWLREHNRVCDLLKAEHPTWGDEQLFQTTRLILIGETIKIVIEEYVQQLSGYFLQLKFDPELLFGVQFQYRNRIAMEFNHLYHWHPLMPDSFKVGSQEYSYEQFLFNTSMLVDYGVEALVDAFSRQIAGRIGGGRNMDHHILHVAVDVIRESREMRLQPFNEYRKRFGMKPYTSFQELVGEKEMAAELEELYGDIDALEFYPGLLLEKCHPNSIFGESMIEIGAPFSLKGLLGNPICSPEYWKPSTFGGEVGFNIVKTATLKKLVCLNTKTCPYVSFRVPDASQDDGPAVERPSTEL", "assay": "Inhibition of Cyclooxygenase COX-1 at compound concentration of 10.0 uM in the Eurofins-Panlabs enzyme assay (Eurofins_assay_116020)", "conditions": "Compound concentration 10.0 uM; call rule not given here"}, "[3]": {"biological_target": "Mitogen-activated protein kinase 3 (Homo sapiens) (UniProt P27361)", "assay": "Inhibition of Protein Serine/Threonine Kinase, MAPK3 (ERK1) at 10 µM in the Eurofins-Panlabs enzyme assay (Eurofins_assay_171000)", "conditions": "Compound concentration […]"}, "[4]": {"biological_target": "Receptor-type tyrosine-protein phosphatase C (Homo sapiens) (UniProt P08575)", "sequence (P08575 whole entry)": "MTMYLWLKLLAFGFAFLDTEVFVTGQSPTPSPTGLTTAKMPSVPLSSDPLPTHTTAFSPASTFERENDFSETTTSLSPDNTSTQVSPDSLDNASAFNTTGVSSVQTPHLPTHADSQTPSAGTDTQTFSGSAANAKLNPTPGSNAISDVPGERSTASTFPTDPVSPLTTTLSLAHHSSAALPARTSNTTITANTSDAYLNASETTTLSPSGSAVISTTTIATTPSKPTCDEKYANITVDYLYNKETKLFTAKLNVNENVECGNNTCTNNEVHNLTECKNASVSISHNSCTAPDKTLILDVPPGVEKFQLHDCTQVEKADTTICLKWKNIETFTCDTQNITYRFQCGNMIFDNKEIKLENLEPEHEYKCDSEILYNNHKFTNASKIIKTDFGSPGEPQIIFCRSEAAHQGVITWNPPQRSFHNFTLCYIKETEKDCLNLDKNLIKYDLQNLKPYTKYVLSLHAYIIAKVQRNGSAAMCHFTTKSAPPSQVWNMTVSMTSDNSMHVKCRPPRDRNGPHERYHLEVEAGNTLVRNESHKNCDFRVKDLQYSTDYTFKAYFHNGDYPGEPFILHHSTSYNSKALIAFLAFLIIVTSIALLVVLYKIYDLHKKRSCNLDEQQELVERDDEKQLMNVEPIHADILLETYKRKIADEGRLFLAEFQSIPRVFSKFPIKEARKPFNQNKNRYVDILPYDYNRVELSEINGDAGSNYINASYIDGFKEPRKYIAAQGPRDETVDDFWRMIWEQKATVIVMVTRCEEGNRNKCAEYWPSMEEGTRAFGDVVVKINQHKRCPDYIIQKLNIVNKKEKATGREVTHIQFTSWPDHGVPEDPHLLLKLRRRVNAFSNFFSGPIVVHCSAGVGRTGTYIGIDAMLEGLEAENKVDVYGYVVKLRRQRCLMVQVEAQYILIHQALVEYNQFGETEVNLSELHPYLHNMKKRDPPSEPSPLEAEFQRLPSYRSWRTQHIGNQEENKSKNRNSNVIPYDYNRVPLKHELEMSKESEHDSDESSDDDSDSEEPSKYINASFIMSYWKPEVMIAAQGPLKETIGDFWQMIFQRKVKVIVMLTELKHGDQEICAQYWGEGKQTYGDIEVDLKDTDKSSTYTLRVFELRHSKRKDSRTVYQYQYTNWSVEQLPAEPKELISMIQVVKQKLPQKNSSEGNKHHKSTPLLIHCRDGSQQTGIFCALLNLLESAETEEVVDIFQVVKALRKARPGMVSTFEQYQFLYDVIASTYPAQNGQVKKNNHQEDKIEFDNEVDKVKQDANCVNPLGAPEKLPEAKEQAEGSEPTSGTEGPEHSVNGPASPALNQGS", "assay": "Inhibition of Protein Tyrosine Phosphatase, PTPRC (CD45) at 10 µM in the Eurofins-Panlabs enzyme assay (Eurofins_assay_190010)", "conditions": "Compound concentration 10.0 uM"}, "[5]": {"biological_target": "T1, Alpha-2C adrenergic receptor (Homo sapiens) (UniProt P18825)", "T1 sequence (whole entry)": "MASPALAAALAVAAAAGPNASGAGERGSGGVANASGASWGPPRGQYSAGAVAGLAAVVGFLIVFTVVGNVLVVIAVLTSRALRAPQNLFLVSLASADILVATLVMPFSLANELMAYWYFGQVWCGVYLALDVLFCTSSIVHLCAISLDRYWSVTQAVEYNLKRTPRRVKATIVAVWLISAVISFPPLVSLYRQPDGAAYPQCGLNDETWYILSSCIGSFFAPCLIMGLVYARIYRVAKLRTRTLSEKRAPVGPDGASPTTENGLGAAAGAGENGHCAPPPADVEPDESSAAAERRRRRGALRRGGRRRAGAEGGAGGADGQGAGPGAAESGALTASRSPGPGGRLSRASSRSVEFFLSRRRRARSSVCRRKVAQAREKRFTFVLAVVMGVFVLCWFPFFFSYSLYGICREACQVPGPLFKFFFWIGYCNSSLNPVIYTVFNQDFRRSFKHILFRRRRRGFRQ", "assay": "(§1) Adrenergic alpha2C Eurofins-Panlabs radioligand binding assay", "parameters": "ligand concentration 1 nM, non-specific ligand with concentration 10 µM WB-4101, incubation time 60 min, incubation temperature 25 °C"}, "[6]": {"biological_target": "Alpha-2C adrenergic receptor (Homo sapiens, UniProt P18825)", "assay": "as §1", "parameters": "ligand concentration 1 nM, non-specific ligand with concentration 10 µM WB-4101, incubation time 60 min, incubation temperature 25 °C"}, "[7]": {"biological_target": "Cholecystokinin receptor type A (Homo sapiens) (UniProt P32238)", "assay": "Inhibition of Cholecystokinin CCK1 (CCKA) at 10 µM in the Eurofins-Panlabs radioligand binding assay (Eurofins_assay_218020)"}, "[8]": {"biological_target": "Melanocortin receptor 4 (Homo sapiens) (UniProt P32245)", "assay": "Inhibition of Melanocortin MC4 at 10 µM in the Eurofins-Panlabs radioligand binding assay (Eurofins_assay_251350)", "parameters": "ligand concentration 0.02 nM", "conditions": "Compound concentration 10.0 uM"}, "[9]": {"biological_target": "Adenosine Transporter (Cavia porcellus) (UniProt H0V4R7+H0UUG1+H0V3Z5)", "assay": "Inhibition of Transporter, Adenosine at compound concentration of 10.0 uM in the Eurofins-Panlabs radioligand binding assay (Eurofins_assay_202000)", "type": "protein assay", "parameters": "ligand concentration 0.5 nM, non-specific ligand with concentration 5 uM Nitrobenzylthioinosine, incubation time 30 min, incubation temperature 25 C", "conditions": "Compound concentration 10.0 uM"}, "[10]": {"biological_target": "Substance-P receptor (Homo sapiens) (UniProt P25103)", "assay": "Tachykinin NK1 Eurofins-Panlabs radioligand binding assay", "conditions": "Compound concentration 10.0 uM"}, "[11]": {"biological_target": "Tyrosine 3-monooxygenase (Homo sapiens) (UniProt P07101)", "assay": "Tyrosine Hydroxylase Eurofins-Panlabs enzyme assay", "parameters": "substrate with concentration", "conditions": "Rattus norvegicus; Compound concentration 10.0 uM"}, "[12]": {"biological_target": "Histamine H4 receptor (Homo sapiens) (UniProt Q9H3N8)", "sequence (Q9H3N8 whole entry)": "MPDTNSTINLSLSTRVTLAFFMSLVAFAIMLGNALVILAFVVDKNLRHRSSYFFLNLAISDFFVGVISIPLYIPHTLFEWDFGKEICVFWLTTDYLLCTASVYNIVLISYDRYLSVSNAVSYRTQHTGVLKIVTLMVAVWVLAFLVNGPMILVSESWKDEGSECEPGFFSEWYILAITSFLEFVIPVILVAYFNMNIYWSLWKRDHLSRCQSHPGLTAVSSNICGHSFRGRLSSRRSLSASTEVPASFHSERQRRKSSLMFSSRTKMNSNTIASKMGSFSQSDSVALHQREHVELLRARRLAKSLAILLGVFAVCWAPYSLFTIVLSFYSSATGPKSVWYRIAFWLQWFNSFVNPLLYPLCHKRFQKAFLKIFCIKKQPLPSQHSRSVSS", "assay": "Histamine H4 Eurofins-Panlabs radioligand binding assay", "conditions": "Compound concentration 10.0 uM"}, "[13]": {"biological_target": "Mitogen-activated protein kinase 14 (Homo sapiens, UniProt Q16539)", "assay": "NanoBRET (SGC Frankfurt) (MAPK14)"}, "[14]": {"biological_target": "Neutrophil elastase (Homo sapiens) (UniProt P08246)", "sequence (P08246 whole entry)": "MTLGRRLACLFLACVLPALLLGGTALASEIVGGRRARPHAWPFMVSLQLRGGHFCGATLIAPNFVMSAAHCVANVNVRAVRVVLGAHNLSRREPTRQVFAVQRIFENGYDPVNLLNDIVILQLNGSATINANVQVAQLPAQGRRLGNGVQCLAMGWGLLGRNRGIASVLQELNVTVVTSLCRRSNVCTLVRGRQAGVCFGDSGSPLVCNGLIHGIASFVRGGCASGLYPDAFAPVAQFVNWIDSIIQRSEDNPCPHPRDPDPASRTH", "assay": "Peptidase, ELA2 (Neutrophil Elastase 2) Eurofins-Panlabs enzyme assay", "conditions": "Compound concentration 30.0 uM"}, "[15]": {"biological_target": "Macrophage metalloelastase (Homo sapiens) (UniProt P39900)", "assay": "Peptidase, Matrix Metalloproteinase-12 (MMP-12) Eurofins-Panlabs enzyme assay", "conditions": "Compound concentration 10.0 uM"}, "[16]": {"biological_target": "Protein kinase C alpha type (Homo sapiens) (UniProt P17252)", "assay": "Inhibition of Protein Serine/Threonine Kinase, PRKCA (PKCα) at 10 µM in the Eurofins-Panlabs enzyme assay (Eurofins_assay_180010)", "parameters": "substrate with concentration Histone, incubation time 10 min, incubation temperature 25 °C", "conditions": "Compound concentration […]"}, "[17]": {"biological_target": "Epidermal growth factor receptor (Homo sapiens, UniProt P00533)", "sequence (P00533 whole entry)": "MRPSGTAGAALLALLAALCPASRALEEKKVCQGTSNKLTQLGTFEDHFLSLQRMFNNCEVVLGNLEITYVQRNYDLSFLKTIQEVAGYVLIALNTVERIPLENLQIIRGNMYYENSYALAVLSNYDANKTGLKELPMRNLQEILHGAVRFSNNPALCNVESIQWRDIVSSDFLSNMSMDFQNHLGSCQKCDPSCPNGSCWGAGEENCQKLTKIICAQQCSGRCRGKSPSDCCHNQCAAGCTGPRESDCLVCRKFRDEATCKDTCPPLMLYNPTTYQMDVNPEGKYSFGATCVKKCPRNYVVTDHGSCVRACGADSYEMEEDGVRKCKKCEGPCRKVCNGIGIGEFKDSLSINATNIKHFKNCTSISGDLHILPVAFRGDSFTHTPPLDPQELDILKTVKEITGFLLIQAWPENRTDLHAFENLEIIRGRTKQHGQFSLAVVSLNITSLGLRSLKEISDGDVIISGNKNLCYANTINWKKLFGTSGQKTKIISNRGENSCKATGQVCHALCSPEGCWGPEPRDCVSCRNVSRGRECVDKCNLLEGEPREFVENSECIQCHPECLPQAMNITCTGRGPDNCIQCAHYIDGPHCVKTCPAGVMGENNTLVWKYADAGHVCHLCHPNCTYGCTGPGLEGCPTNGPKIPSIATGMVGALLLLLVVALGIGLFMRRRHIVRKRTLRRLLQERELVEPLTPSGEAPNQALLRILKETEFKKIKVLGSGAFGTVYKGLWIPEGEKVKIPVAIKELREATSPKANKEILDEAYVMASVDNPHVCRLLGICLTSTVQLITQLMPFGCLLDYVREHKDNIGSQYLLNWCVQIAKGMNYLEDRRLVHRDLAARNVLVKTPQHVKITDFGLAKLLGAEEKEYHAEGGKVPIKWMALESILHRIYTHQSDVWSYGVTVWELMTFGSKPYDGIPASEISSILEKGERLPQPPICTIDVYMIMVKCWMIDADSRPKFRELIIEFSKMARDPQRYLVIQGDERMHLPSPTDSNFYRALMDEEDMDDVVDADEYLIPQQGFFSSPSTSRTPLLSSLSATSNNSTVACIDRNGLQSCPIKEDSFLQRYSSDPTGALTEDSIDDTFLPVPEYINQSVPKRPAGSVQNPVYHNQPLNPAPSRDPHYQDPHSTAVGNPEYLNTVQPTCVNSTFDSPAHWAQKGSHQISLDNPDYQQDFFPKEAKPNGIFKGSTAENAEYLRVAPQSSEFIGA", "assay": "Protein Tyrosine Kinase, EGF Receptor Eurofins-Panlabs enzyme assay", "parameters": "substrate with concentration 10 µg/mL Poly(Glu:Tyr), incubation time 60 min, incubation temperature 25 °C"}, "[18]": {"biological_target": "Tyrosine-protein phosphatase non-receptor type 2 (Homo sapiens) (UniProt P17706)", "assay": "Protein Tyrosine Phosphatase, PTPN2 (TCPTP) Eurofins-Panlabs enzyme assay", "parameters": "substrate with concentration DiFMUP, incubation time 60 min, incubation temperature 37 °C", "conditions": "Compound concentration 10.0 uM"}, "[19]": {"biological_target": "Inositol 1,4,5-trisphosphate-gated calcium channel ITPR1 (Homo sapiens) (UniProt Q14643)", "assay": "Inositol Trisphosphate IP3 Eurofins-Panlabs radioligand binding assay", "conditions": "Rattus norvegicus; Compound concentration 10.0 uM"}, "[20]": {"biological_target": "Somatostatin receptor type 3 (Homo sapiens) (UniProt P32745)", "assay": "Somatostatin sst3 Eurofins-Panlabs radioligand binding assay", "conditions": "concentration not given here"}, "[21]": {"biological_target": "T2, cGMP-specific 3',5'-cyclic phosphodiesterase (Homo sapiens, UniProt O76074)"}, "[22]": {"biological_target": "Endothelin-1 receptor (Homo sapiens) (UniProt P25101)", "conditions": "Compound concentration 10.0 uM"}, "[23]": {"biological_target": "Estrogen receptor (Homo sapiens) (UniProt P03372)", "conditions": "Compound concentration 10.0 uM"}, "[24]": {"biological_target": "T2, cGMP-specific 3',5'-cyclic phosphodiesterase", "remark": "listed apart in the source"}, "[25]": {"biological_target": "Glutamate receptor 2 (Homo sapiens) (UniProt P42262)", "sequence (P42262 whole entry)": "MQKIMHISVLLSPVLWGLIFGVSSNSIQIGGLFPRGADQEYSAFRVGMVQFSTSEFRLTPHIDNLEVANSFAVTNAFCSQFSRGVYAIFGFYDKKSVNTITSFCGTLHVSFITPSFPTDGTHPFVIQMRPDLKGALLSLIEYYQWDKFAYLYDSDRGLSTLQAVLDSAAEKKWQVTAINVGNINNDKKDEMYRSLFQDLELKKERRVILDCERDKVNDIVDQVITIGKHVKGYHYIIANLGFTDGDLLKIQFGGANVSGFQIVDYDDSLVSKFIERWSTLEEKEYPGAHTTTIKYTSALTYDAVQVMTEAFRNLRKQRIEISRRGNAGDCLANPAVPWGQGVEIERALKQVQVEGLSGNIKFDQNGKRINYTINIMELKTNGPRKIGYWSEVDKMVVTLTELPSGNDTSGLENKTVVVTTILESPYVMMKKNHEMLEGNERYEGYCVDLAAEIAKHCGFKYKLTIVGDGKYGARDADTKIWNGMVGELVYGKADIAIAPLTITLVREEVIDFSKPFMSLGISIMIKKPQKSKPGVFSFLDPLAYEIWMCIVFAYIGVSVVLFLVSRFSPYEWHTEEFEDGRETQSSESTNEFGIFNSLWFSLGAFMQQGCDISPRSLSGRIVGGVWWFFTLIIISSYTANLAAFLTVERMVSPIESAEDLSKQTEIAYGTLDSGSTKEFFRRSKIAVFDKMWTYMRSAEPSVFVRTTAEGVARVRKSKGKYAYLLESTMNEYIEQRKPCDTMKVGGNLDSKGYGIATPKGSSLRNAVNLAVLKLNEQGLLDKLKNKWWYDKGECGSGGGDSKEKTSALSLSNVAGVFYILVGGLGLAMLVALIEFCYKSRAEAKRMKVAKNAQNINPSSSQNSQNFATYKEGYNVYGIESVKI", "conditions": "Rattus norvegicus; Compound concentration 10.0 uM"}, "[26]": {"biological_target": "Vasopressin V1a receptor (Homo sapiens) (UniProt P37288)", "conditions": "Compound concentration 10.0 uM"}, "[27]": {"biological_target": "Gamma-aminobutyric acid type B receptor subunit 1 (Homo sapiens) (UniProt Q9UBS5)", "conditions": "Rattus norvegicus; Compound concentration 10.0 uM"}},
  "data": [
    {"smiles": "O=C(O)c1cc(-c2ccc(C3CCNCC3)cc2)c2ccc(-c3ccc(C(F)(F)F)cc3)cc2c1", "note": "[PPTN]", "values": [
      {"measurement": "IC50", "setting": "[1]", "result": 7.01, "unit": "µM"},
      {"measurement": "Ki", "setting": "[1]", "result": 4, "unit": "µM"},
      {"measurement": "inhibition", "setting": "[2]", "result": 4, "unit": "%"},
      {"measurement": "inhibition", "setting": "[3]", "result": -5, "unit": "%"},
      {"measurement": "inhibition", "setting": "[4]", "result": -7, "unit": "%"},
      {"measurement": "inhibition", "setting": "[5]; Compound concentration 0.01 uM", "result": -4, "unit": "%"},
      {"measurement": "inhibition", "setting": "[5]; Compound concentration 0.1 uM", "result": -2, "unit": "%"},
      {"measurement": "inhibition", "setting": "[5]; Compound concentration 1.0 uM", "result": 6, "unit": "%"},
      {"measurement": "inhibition", "setting": "[5]; Compound concentration 10.0 uM", "result": 63, "unit": "%"},
      {"measurement": "IC50", "setting": "[6]", "result": 6.88, "unit": "µM"},
      {"measurement": "Ki", "setting": "[6]", "result": 1, "unit": "µM"},
      {"measurement": "inhibition", "setting": "[7]", "result": 10, "unit": "%"},
      {"measurement": "inhibition", "setting": "[8]", "result": 28, "unit": "%"},
      {"measurement": "inhibition", "setting": "[9]", "result": 9, "unit": "%"},
      {"measurement": "inhibition", "setting": "[10]", "result": 1, "unit": "%"},
      {"measurement": "inhibition", "setting": "[11]", "result": -3, "unit": "%"},
      {"measurement": "inhibition", "setting": "[12]", "result": 15, "unit": "%"},
      {"measurement": "IC50", "setting": "[13]", "result": "> 20 µM (not active)"},
      {"measurement": "inhibition", "setting": "[14]", "result": -4, "unit": "%"},
      {"measurement": "inhibition", "setting": "[15]", "result": -1, "unit": "%"},
      {"measurement": "inhibition", "setting": "[16]", "result": 29, "unit": "%"},
      {"measurement": "IC50", "setting": "[17]", "result": 4.59, "unit": "µM"},
      {"measurement": "inhibition", "setting": "[17]; Compound concentration 0.01 uM", "result": -6, "unit": "%"},
      {"measurement": "inhibition", "setting": "[17]; Compound concentration 0.1 uM", "result": -3, "unit": "%"},
      {"measurement": "inhibition", "setting": "[17]; Compound concentration 1.0 uM", "result": 12, "unit": "%"},
      {"measurement": "inhibition", "setting": "[17]; Compound concentration 10.0 uM", "result": 74, "unit": "%"},
      {"measurement": "inhibition", "setting": "[18]", "result": -4, "unit": "%"},
      {"measurement": "inhibition", "setting": "[19]", "result": 9, "unit": "%"},
      {"measurement": "inhibition", "setting": "[20]", "result": 35, "unit": "%"},
      {"measurement": "IC50", "setting": "[21]", "result": 38.2, "unit": "µM"},
      {"measurement": "inhibition", "setting": "[22]", "result": 6, "unit": "%"},
      {"measurement": "inhibition", "setting": "[23]", "result": 12, "unit": "%"},
      {"measurement": "inhibition", "setting": "[24]; Compound concentration 0.1 uM", "result": -3, "unit": "%"},
      {"measurement": "inhibition", "setting": "[24]; Compound concentration 1.0 uM", "result": -8, "unit": "%"},
      {"measurement": "inhibition", "setting": "[24]; Compound concentration 10.0 uM", "result": 22, "unit": "%"},
      {"measurement": "inhibition", "setting": "[24]; Compound concentration 100.0 uM", "result": 72, "unit": "%"},
      {"measurement": "inhibition", "setting": "[25]", "result": -2, "unit": "%"},
      {"measurement": "inhibition", "setting": "[26]", "result": 3, "unit": "%"},
      {"measurement": "inhibition", "setting": "[27]", "result": 3, "unit": "%"}
    ]}
  ]
}
